Laboratory results taken from patent US8163929B2, “Dihydropyridone amides as P2X7 modulators” (Roche Palo Alto LLC, priority 2008, dated 2012).

Biological target: T1, P2X7 (UniProt Q99572)
T1 sequence (Q99572 1-595): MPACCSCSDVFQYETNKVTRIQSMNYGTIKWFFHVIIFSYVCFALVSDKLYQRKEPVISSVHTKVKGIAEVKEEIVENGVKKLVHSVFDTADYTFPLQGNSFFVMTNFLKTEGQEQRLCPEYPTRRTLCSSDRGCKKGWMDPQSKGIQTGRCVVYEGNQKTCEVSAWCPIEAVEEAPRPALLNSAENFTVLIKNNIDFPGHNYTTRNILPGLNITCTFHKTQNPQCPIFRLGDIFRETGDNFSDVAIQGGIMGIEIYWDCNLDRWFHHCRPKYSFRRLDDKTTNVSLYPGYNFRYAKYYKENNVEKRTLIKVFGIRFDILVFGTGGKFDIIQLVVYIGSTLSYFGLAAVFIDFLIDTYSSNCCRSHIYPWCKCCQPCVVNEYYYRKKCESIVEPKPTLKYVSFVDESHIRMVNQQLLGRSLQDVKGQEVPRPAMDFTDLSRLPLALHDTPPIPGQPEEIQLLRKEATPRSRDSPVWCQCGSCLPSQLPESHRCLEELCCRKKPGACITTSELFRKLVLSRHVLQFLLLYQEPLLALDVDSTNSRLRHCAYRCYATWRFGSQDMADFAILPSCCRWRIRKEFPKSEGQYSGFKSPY
Test: P2X7 activity of Table 1
Format: cell-based
Details: pIC50 values for P2X7
Experimental: Stock solutions of compounds were prepared from powders as a 10 mM DMSO stock solution. These solutions were stored at RT during the two week period of these experiments to prevent freeze-thaw of the DMSO stocks. The DMSO stocks were added to the appropriate assay buffer at a concentration of 10 μM, and then diluted serially to the final concentrations that were tested. […] The aqueous solutions of compounds as well as ATP (Sigma A7699) and BzATP (Sigma B6396) were prepared fresh for each day of experiment.
1321N1 cells stably expressing the full length human P2X7 gene (1321N1-hP2X7) and HEK293 cells stably expressing the full length rat P2X7 gene (HEK293-rP2X7) were obtained from the Roche Cell Culture Facility. 1321N1-hP2X7 cells were grown in Dulbecco's Modified Eagle's Medium (DMEM) high glucose supplemented with 10% FBS and 250 μg/mL G418. HEK293-rP2X7 cells were grown in DMEM/F-12 supplemented with 10% FBS, 1 mM CaCl2, 2 mM MgCl2, 2 mM L-Glutamine and 500 μg/ml G418. Cells were split such that they never became >70% confluent.
On the day prior to the experiment, 1321N1-hP2X7 or HEK293-rP2X7 cells were released into suspension with calcium-free PBS+Versene and washed by centrifugation with calcium-free PBS to remove the Versene. Cells were resuspended in growth medium at a density of 2.5×10^5 cells/mL and seeded into black walled, clear bottom 96 well plates (50,000 cells/well) approximately 18 hr prior to intracellular calcium flux experiments.
On the day of the experiment, plates were washed with FLIPR buffer (calcium- and magnesium-free Hank's Balanced Salt Solution (HBSS) supplemented with 10 mM Hepes, 2.5 mM probenecid and 2 mM calcium chloride) using a BIO-TEK 96 channel plate washer and incubated with […] fluo-3 dye at 37° C. for one hr. The dye was then removed by plate washing and the cells were allowed to equilibrate for 20 min at room temperature with antagonist or vehicle (FLIPR buffer). Agonist (100 μM BzATP final concentration for hP2X7; 5 μM BzATP final concentration or rP2X7) was added online with the FLIPR and fluorescence measurements made at 1 sec intervals for 60 sec followed by 3 sec intervals for a further 4 min (5 min total). A final addition of 5 μM ionomycin was made and the maximal BzATP-evoked fluorescence normalized to the maximal ionomycin-evoked fluorescence.

pIC50 | SMILES
6.3 | Cc1ccc(N2CCOCC2)cc1NC(=O)C1=CNC(=O)C[C@H]1c1ccc(F)cc1 [Compound 47, (S)-4-(4-Fluoro-phenyl)-6-oxo-1,4,5,6-tetrahydro-pyridine-3-carboxylic acid (2-methyl-5-morpholin-4-yl-phenyl)-amide]
5.86 | COCCn1c(C)nnc1-c1ccc(C)c(NC(=O)C2=CNC(=O)C[C@H]2c2ccc(F)cc2)c1 [Compound 48, (S)-4-(4-Fluoro-phenyl)-6-oxo-1,4,5,6-tetrahydro-pyridine-3-carboxylic acid {5-[4-(2-methoxy-ethyl)-5-methyl-4H-[1,2,4]triazol-3-yl]-2-methyl-phenyl}-amide]
6.855 | Cc1cn(-c2ccc(C)c(NC(=O)C3=CNC(=O)C[C@H]3c3ccc(F)cc3)c2)cn1 [Compound 49, (S)-4-(4-Fluoro-phenyl)-6-oxo-1,4,5,6-tetrahydro-pyridine-3-carboxylic acid [2-methyl-5-(4-methyl-imidazol-1-yl)-phenyl]-amide]
7.145 | CCOC(=O)Cn1nc(-c2ccc(C)c(NC(=O)C3=CNC(=O)C[C@H]3c3ccc(F)cc3)c2)cc1C [Compound 50, [3-(3-{[(S)-4-(4-Fluoro-phenyl)-6-oxo-1,4,5,6-tetrahydro-pyridine-3-carbonyl]-amino}-4-methyl-phenyl)-5-methyl-pyrazol-1-yl]-acetic acid ethyl ester]
7.87 | Cc1ccc(-c2ncccn2)cc1NC(=O)C1=CNC(=O)C[C@H]1c1ccc(F)cc1 [Compound 51, (S)-4-(4-Fluoro-phenyl)-6-oxo-1,4,5,6-tetrahydro-pyridine-3-carboxylic acid (2-methyl-5-pyrimidin-2-yl-phenyl)-amide]
6.425 | Cc1ccc(-c2cncnc2)cc1NC(=O)C1=CNC(=O)C[C@H]1c1ccc(F)cc1 [Compound 52, (S)-4-(4-Fluoro-phenyl)-6-oxo-1,4,5,6-tetrahydro-pyridine-3-carboxylic acid (2-methyl-5-pyrimidin-5-yl-phenyl)-amide]
7.325 | Cc1nccc(-c2ccc(C)c(NC(=O)C3=CNC(=O)C[C@H]3c3ccc(F)cc3)c2)n1 [Compound 53, (S)-4-(4-Fluoro-phenyl)-6-oxo-1,4,5,6-tetrahydro-pyridine-3-carboxylic acid [2-methyl-5-(2-methyl-pyrimidin-4-yl)-phenyl]-amide]
7.045 | Cc1cc(-c2ccc(C)c(NC(=O)C3=CNC(=O)C[C@H]3c3ccc(F)cc3)c2)ccn1 [Compound 54, (S)-4-(4-Fluoro-phenyl)-6-oxo-1,4,5,6-tetrahydro-pyridine-3-carboxylic acid [2-methyl-5-(2-methyl-pyridin-4-yl)-phenyl]-amide]
7.54 | Cc1ccc(-c2c(Cl)cn[nH]c2=O)cc1NC(=O)C1=CNC(=O)C[C@H]1c1ccc(F)cc1 [Compound 55, (S)-4-(4-Fluoro-phenyl)-6-oxo-1,4,5,6-tetrahydro-pyridine-3-carboxylic acid [5-(5-chloro-3-oxo-2,3-dihydro-pyridazin-4-yl)-2-methyl-phenyl]-amide]
8.256 | Cc1ccc(-c2ccn[nH]c2=O)cc1NC(=O)C1=CNC(=O)C[C@H]1c1ccc(F)cc1 [Compound 56, (S)-4-(4-Fluoro-phenyl)-6-oxo-1,4,5,6-tetrahydro-pyridine-3-carboxylic acid [2-methyl-5-(3-oxo-2,3-dihydro-pyridazin-4-yl)-phenyl]-amide]
8.06 | Cc1ccc(-c2cscn2)cc1NC(=O)C1=CNC(=O)C[C@H]1c1ccc(F)cc1 [Compound 57, (S)-4-(4-Fluoro-phenyl)-6-oxo-1,4,5,6-tetrahydro-pyridine-3-carboxylic acid (2-methyl-5-thiazol-4-yl-phenyl)-amide]
7.87 | Cc1nc(-c2ccc(C)c(NC(=O)C3=CNC(=O)C[C@H]3c3ccc(F)cc3)c2)cs1 [Compound 58, (S)-4-(4-Fluoro-phenyl)-6-oxo-1,4,5,6-tetrahydro-pyridine-3-carboxylic acid [2-methyl-5-(2-methyl-thiazol-4-yl)-phenyl]-amide]
7.22 | Cc1ccc(-c2ccncc2)cc1NC(=O)C1=CNC(=O)C[C@H]1c1ccc(F)cc1 [Compound 59, (S)-4-(4-Fluoro-phenyl)-6-oxo-1,4,5,6-tetrahydro-pyridine-3-carboxylic acid (2-methyl-5-pyridin-4-yl-phenyl)-amide]
6.535 | CCn1c(C)nnc1-c1ccc(C)c(NC(=O)C2=CNC(=O)C[C@H]2c2ccc(F)cc2)c1 [Compound 60, (S)-4-(4-Fluoro-phenyl)-6-oxo-1,4,5,6-tetrahydro-pyridine-3-carboxylic acid [5-(4-ethyl-5-methyl-4H-[1,2,4]triazol-3-yl)-2-methyl-phenyl]-amide]
7.255 | Cc1ccc(-c2cc(C)n(C[C@H](O)CO)n2)cc1NC(=O)C1=CN(C)C(=O)C[C@H]1c1ccc(F)cc1 [Compound 61, (S)-4-(4-Fluoro-phenyl)-1-methyl-6-oxo-1,4,5,6-tetrahydro-pyridine-3-carboxylic acid {5-[1-((S)-2,3-dihydroxy-propyl)-5-methyl-1H-pyrazol-3-yl]-2-methyl-phenyl}-amide]
6.935 | Cc1ccc(-c2cc(C3CC3)[nH]n2)cc1NC(=O)C1=CNC(=O)C[C@H]1c1ccc(F)cc1 [Compound 62, (S)-4-(4-Fluoro-phenyl)-6-oxo-1,4,5,6-tetrahydro-pyridine-3-carboxylic acid [5-(5-cyclopropyl-1H-pyrazol-3-yl)-2-methyl-phenyl]-amide]
7.965 | Cc1ccc(-c2ccn(C)n2)cc1NC(=O)C1=CNC(=O)C[C@H]1c1cccc(F)c1 [Compound 63, (S)-4-(3-Fluoro-phenyl)-6-oxo-1,4,5,6-tetrahydro-pyridine-3-carboxylic acid [2-methyl-5-(1-methyl-1H-pyrazol-3-yl)-phenyl]-amide]
7.585 | Cc1ccc(-c2cc(C)n(C[C@@H](O)CO)n2)cc1NC(=O)C1=CN(C)C(=O)C[C@H]1c1ccc(F)cc1 [Compound 64, (S)-4-(4-Fluoro-phenyl)-1-methyl-6-oxo-1,4,5,6-tetrahydro-pyridine-3-carboxylic acid {5-[1-((R)-2,3-dihydroxy-propyl)-5-methyl-1H-pyrazol-3-yl]-2-methyl-phenyl}-amide]
7.705 | Cc1ccc(-c2ccn(C)n2)cc1NC(=O)C1=CNC(=O)C[C@H]1c1ccc(F)cc1 [Compound 65, (S)-4-(4-Fluoro-phenyl)-6-oxo-1,4,5,6-tetrahydro-pyridine-3-carboxylic acid [2-methyl-5-(1-methyl-1H-pyrazol-3-yl)-phenyl]-amide]
5.55 | Cc1ccc(-n2cnnc2)cc1NC(=O)C1=CNC(=O)C[C@H]1c1ccc(F)cc1 [Compound 66, (S)-4-(4-Fluoro-phenyl)-6-oxo-1,4,5,6-tetrahydro-pyridine-3-carboxylic acid (2-methyl-5-[1,2,4]triazol-4-yl-phenyl)-amide]
7.575 | CCn1c(=O)cnn(-c2ccc(C)c(NC(=O)C3=CNC(=O)C[C@H]3c3ccc(F)cc3)c2)c1=O [Compound 67, (S)-4-(4-Fluoro-phenyl)-6-oxo-1,4,5,6-tetrahydro-pyridine-3-carboxylic acid [5-(4-ethyl-3,5-dioxo-4,5-dihydro-3H-[1,2,4]triazin-2-yl)-2-methyl-phenyl]-amide]
7.01 | Cc1ccc(-n2ncc(=O)n(C)c2=O)cc1NC(=O)C1=CN(C)C(=O)C[C@H]1c1ccc(F)cc1 [Compound 68, (S)-4-(4-Fluoro-phenyl)-1-methyl-6-oxo-1,4,5,6-tetrahydro-pyridine-3-carboxylic acid [2-methyl-5-(4-methyl-3,5-dioxo-4,5-dihydro-3H-[1,2,4]triazin-2-yl)-phenyl]-amide]
